The values below come from PMC8664850, “Design, synthesis, and biological evaluation of novel urolithins derivatives as potential phosphodiesterase II inhibitors” (Scientific Reports, 2021).

For series [1], the target named is T1, Phosphodiesterase II (PDE2) (Homo sapiens, UniProt O00408).
T1 construct: the recombinant plasmid pET15b-PDE2A (580–941) was donated; made in house; host or cells: E. coli BL21-Codon Plus (DE3)
Kind of series: PDE2 enzyme inhibitory activity, AlphaScreen cAMP kit method. Conditions: in vitro, enzyme level, seven concentrations, mean of at least three experiments. The class given is biochemical.
Description: The AlphaScreen kit method was used to detect PDE2 inhibitory activity of the 27 synthesized compounds (2a–n and 4a–m) in vitro, each diluted at seven concentrations, and each carried out with three sets of parallel experiments. The IC50 values were obtained by fitting calculations using software Graphpad Prism 7.

T1 sequence (O00408 580-941): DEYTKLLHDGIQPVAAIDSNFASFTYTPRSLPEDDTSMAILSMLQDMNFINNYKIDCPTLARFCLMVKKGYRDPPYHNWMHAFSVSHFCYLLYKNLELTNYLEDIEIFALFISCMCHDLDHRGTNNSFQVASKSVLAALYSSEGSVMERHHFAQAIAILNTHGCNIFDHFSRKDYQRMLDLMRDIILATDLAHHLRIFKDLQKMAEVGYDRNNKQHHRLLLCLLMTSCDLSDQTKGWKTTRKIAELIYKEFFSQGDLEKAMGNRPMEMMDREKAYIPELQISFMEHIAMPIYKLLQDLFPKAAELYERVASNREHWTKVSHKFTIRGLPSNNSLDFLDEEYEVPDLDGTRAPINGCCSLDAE

A word on the IC50: it is the concentration that gives 50% inhibition. Lower therefore signals greater potency in that assay. Regarding `Cc1ccc2c(c1)c(=O)oc1cc(O)ccc12` [Compound 1, 3-hydroxy-8-methyl-6H-benzo [C]chromen-6-one], in series [1], the IC50 was more than 100 µM.

In series [1], `CCOc1ccc2c(c1)oc(=O)c1cc(C)ccc12` [Compound 2a, 3-ethoxy-8-methyl-6H-benzo[c]chromen-6-one] gave an IC50 of more than 100 µM.

The melting point is the temperature of the solid-liquid transition. Compound `CCCOc1ccc2c(c1)oc(=O)c1cc(C)ccc12` [Compound 2b, 8-methyl-3-propoxy-6H-benzo[c]chromen-6-one] came in with a melting point of 112.3 to 112.6 °C. This compound also yielded an IC50 in series [1] of more than 100 µM.

For the compound `Cc1ccc2c(c1)c(=O)oc1cc(OC(C)C)ccc12` [Compound 2c, 3-isopropoxy-8-methyl-6H-benzo[c]chromen-6-one], the melting point is 102.3 to 103 °C. This compound yielded an IC50 in series [1] of more than 100 µM.

Take `CCC(C)Oc1ccc2c(c1)oc(=O)c1cc(C)ccc12` (centres unmarked) [Compound 2d, 3-(sec-butoxy)-8-methyl-6H-benzo[c]chromen-6-one]: the melting point was 62.6 to 63.4 °C. The compound further had an IC50 in series [1] of more than 100 µM.

In series [1], `CCCCCOc1ccc2c(c1)oc(=O)c1cc(C)ccc12` [Compound 2e, 8-methyl-3-(pentyloxy)-6H-benzo[c]chromen-6-one] registered an IC50 of 34 µM.

On to `Cc1ccc2c(c1)c(=O)oc1cc(OCC3CCCC3)ccc12` [Compound 2f, 3-(cyclopentylmethoxy)-8-methyl-6H-benzo[c]chromen-6-one], for which the melting point fell in the range of 122.8 to 123.6 °C. For the same compound, the IC50 in series [1] was more than 100 µM.

As to `Cc1ccc2c(c1)c(=O)oc1cc(OCC3CCCO3)ccc12` (centres unmarked) [Compound 2g, 8-methyl-3-((tetrahydrofuran-2-yl)methoxy)-6H-benzo[c]chromen-6-one], the melting point was in the range of 122.8 to 123.6 °C. Further, in series [1], the IC50 is more than 100 µM.

Consider `Cc1ccc2c(c1)c(=O)oc1cc(OCC3OCCO3)ccc12` [Compound 2h, 3-((1,3-dioxolan-2-yl)methoxy)-8-methyl-6H-benzo[c]chromen-6-one], for which the melting point was 148.2 to 148.8 °C. Besides, the IC50 in series [1] is more than 100 µM.

The compound `Cc1ccc2c(c1)c(=O)oc1cc(OCCC3OCCO3)ccc12` [Compound 2i, 3-(2-(1,3-dioxolan-2-yl)ethoxy)-8-methyl-6H-benzo[c]chromen-6-one] came in with an IC50 in series [1] of more than 100 µM.

The compound `Cc1ccc2c(c1)c(=O)oc1cc(OCC3CCCCC3)ccc12` [Compound 2j, 3-(cyclohexylmethoxy)-8-methyl-6H-benzo[c]chromen-6-one] registered a melting point of 113.3 to 115.1 °C. For the same compound, in series [1], inhibition was half-maximal at 65.7 µM (IC50).

On to `Cc1ccc2c(c1)c(=O)oc1cc(OCC3CCOCC3)ccc12` [Compound 2k, 8-methyl-3-((tetrahydro-2H-pyran-4-yl)methoxy)-6H-benzo[c]chromen-6-one], for which the melting point fell in the range of 148 to 148.6 °C. The same compound registered an IC50 in series [1] of more than 100 µM.

`Cc1ccc2c(c1)c(=O)oc1cc(OCc3ccccc3F)ccc12` [Compound 2l, 3-((2-fluorobenzyl)oxy)-8-methyl-6H-benzo[c]chromen-6-one] yielded a melting point of 154.9 to 155.5 °C. The compound also came in with an IC50 in series [1] of more than 100 µM.

Compound `Cc1ccc2c(c1)c(=O)oc1cc(OCCC3OCCCO3)ccc12` [Compound 2m, 3-(2-(1,3-dioxan-2-yl)ethoxy)-8-methyl-6H-benzo[c]chromen-6-one] came in with a melting point of 170.1 to 172 °C. In series [1], the IC50 was more than 100 µM.

Consider `COc1cc(COc2ccc3c(c2)oc(=O)c2cc(C)ccc23)cc(OC)c1` [Compound 2n, 3-((3,5-dimethoxybenzyl)oxy)-8-methyl-6H-benzo[c]chromen-6-one], for which the melting point was 158.7 to 160.2 °C. This compound registered an IC50 in series [1] of more than 100 µM.

On to `O=c1oc2cc(O)ccc2c2c1CCCC2` [Compound 3, 3-Hydroxy-7,8,9,10-tetrahydro-6H-benzo[c]chromen-6-one], for which, in series [1], the half-inhibitory concentration (IC50) stood at 93.2 µM.

For `CCOc1ccc2c3c(c(=O)oc2c1)CCCC3` [Compound 4a, 3-ethoxy-7,8,9,10-tetrahydro-6H-benzo[c]chromen-6-one], the melting point lay within 104.2 to 105.6 °C. Further, the IC50 in series [1] was more than 100 µM.

Compound `CCCOc1ccc2c3c(c(=O)oc2c1)CCCC3` [Compound 4b, 3-propoxy-7,8,9,10-tetrahydro-6H-benzo[c]chromen-6-one] registered a melting point of 107.1 to 108.3 °C. Moreover, the IC50 in series [1] is more than 100 µM.

Regarding `CC(C)Oc1ccc2c3c(c(=O)oc2c1)CCCC3` [Compound 4c, 3-isopropoxy-7,8,9,10-tetrahydro-6H-benzo[c]chromen-6-one], the melting point fell in the range of 85.4 to 87.5 °C. In addition, the 50% inhibitory concentration (IC50) in series [1] came to 34.3 µM.

Compound `CCC(C)Oc1ccc2c3c(c(=O)oc2c1)CCCC3` (centres unmarked) [Compound 4d, 3-(sec-butoxy)-7,8,9,10-tetrahydro-6H-benzo[c]chromen-6-one] gave a melting point of 74 to 74.2 °C. The IC50 in series [1] is more than 100 µM.

With `CCCCCOc1ccc2c3c(c(=O)oc2c1)CCCC3` [Compound 4e, 3-(pentyloxy)-7,8,9,10-tetrahydro-6H-benzo[c]chromen-6-one], the melting point lay in the range of 110.6 to 112.4 °C. The same compound returned an IC50 in series [1] of more than 100 µM.

In turn, `O=c1oc2cc(OCC3CCCO3)ccc2c2c1CCCC2` (centres unmarked) [Compound 4f, 3-((tetrahydrofuran-2-yl)methoxy)-7,8,9,10-tetrahydro-6H-benzo[c]chromen-6-one] showed a melting point of 112.2 to 114 °C. In series [1], the IC50 was more than 100 µM.

Turning to `O=c1oc2cc(OCC3OCCO3)ccc2c2c1CCCC2` [Compound 4g, 3-((1,3-dioxolan-2-yl)methoxy)-7,8,9,10-tetrahydro-6H-benzo[c]chromen-6-one], the melting point lay in the range of 128.1 to 129.5 °C. Besides, the IC50 in series [1] was more than 100 µM.

As to `O=c1oc2cc(OCCC3OCCO3)ccc2c2c1CCCC2` [Compound 4h, 3-(2-(1,3-dioxolan-2-yl)ethoxy)-7,8,9,10-tetrahydro-6H-benzo[c]chromen-6-one], the melting point lay within 111 to 112.3 °C. In series [1], the IC50 was more than 100 µM.

Consider `O=c1oc2cc(OCC3CCCCC3)ccc2c2c1CCCC2` [Compound 4i, 3-(cyclohexylmethoxy)-7,8,9,10-tetrahydro-6H-benzo[c]chromen-6-one], for which the melting point is 107.2 to 109.3 °C. Besides, the IC50 in series [1] was more than 100 µM.

`O=c1oc2cc(OCC3CCOCC3)ccc2c2c1CCCC2` [Compound 4j, 3-((tetrahydro-2H-pyran-4-yl)methoxy)-7,8,9,10-tetrahydro-6H-benzo[c]chromen-6-one] returned a melting point of 124.6 to 125.2 °C. The IC50 in series [1] was more than 100 µM.

As to `O=c1oc2cc(OCCC3OCCCO3)ccc2c2c1CCCC2` [Compound 4k, 3-(2-(1,3-dioxan-2-yl)ethoxy)-7,8,9,10-tetrahydro-6H-benzo[c]chromen-6-one], the melting point was in the range of 107.5 to 108.4 °C. This compound also had an IC50 in series [1] of more than 100 µM.

Consider `O=c1oc2cc(OCc3ccccc3F)ccc2c2c1CCCC2` [Compound 4l, 3-((2-fluorobenzyl)oxy)-7,8,9,10-tetrahydro-6H-benzo[c]chromen-6-one], for which the melting point was 124.2 to 125.6 °C. This compound returned a half-inhibitory concentration (IC50) in series [1] of more than 100 µM.

`COc1cc(COc2ccc3c4c(c(=O)oc3c2)CCCC4)cc(OC)c1` [Compound 4m, 3-((3,5-dimethoxybenzyl)oxy)-7,8,9,10-tetrahydro-6H-benzo[c]chromen-6-one] returned a melting point of 98.5 to 99.2 °C. In series [1], this compound came in with an IC50 of more than 100 µM.
